The structures appear in SMILES notation. Bounds are passed on as bounds.

The target of the test is cytochrome P450 2C9 (Homo sapiens, UniProt P11712). Briefly: Inhibitory activity on cytochrome P450 2C9. Type of test: in vitro ADME. The settings on record: no significant inhibition.
Sequence of cytochrome P450 2C9 (P11712 whole entry): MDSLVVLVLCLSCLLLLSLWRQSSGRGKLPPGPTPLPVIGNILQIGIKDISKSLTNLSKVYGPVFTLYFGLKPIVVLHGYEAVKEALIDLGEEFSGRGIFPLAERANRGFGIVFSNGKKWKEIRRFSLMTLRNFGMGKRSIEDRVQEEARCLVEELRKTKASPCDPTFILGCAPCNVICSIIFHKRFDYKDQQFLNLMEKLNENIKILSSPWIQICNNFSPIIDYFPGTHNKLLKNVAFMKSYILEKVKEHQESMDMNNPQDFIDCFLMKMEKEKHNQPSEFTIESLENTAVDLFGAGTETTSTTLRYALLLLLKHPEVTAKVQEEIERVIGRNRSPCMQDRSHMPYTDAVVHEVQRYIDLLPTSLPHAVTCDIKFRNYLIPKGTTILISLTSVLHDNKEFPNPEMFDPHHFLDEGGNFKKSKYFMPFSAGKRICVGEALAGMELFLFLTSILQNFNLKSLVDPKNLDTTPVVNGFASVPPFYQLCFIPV
For orientation: IC50 means the concentration at which inhibition is half-maximal. On to `Cc1cc(Nc2ncc(Cl)c(Nc3cn(C)nc3S(=O)(=O)C(C)C)n2)c(OC2CC2)cc1C1CCN(C(=O)CC#N)CC1` [Final product 166, 1-cyano acetyl-4-(4-(5-chloro-4-(3-(isopropylsulfonyl)-1-methyl-1H-pyrazol-4-amino)pyrimidin-2-amine)-5-cyclopropoxy-2-methylphenyl)piperidine], for which the IC50 was over 10 µM.

`CC(=O)N1CCN([C@H]2CC[C@H](c3cc(OC4CC4)c(Nc4ncc(Cl)c(Nc5cn(C)nc5S(=O)(=O)C(C)C)n4)cc3C)CC2)CC1` [Final product 204]: the half-inhibitory concentration (IC50) was over 10 µM.

With `CC(C)CS(=O)(=O)c1nn(C)cc1Nc1nc(Nc2ccc(C3CCN(C)CC3)cc2OC2CC2)ncc1Cl` [Final product 43], the IC50 is over 10 µM.

`Cc1cc(Nc2ncc(Cl)c(Nc3cn(C)nc3S(=O)(=O)C(C)C)n2)c(OC2CC2)cc1C1CCN(S(C)(=O)=O)CC1` [Final product 167, 5-chloro-N^2-(2-cyclopropoxy-5-methyl-4-(1-methanesulfonyl-piperidin-4-yl)-phenyl)-N^4-(3-(isopropylsulfonyl)-1-methyl-1H-pyrazol-4-yl)pyrimidin-2,4-diamine] gave an IC50 of over 10 µM.

For `CC(C)S(=O)(=O)c1nn(C)cc1Nc1nc(Nc2ccc(C3CCN(C)CC3)cc2OC2CC2)ncc1Cl` [Final product 40], the IC50 was over 10 µM.

Molecule `Cc1cc(Nc2ncc(Cl)c(Nc3cn(C)nc3S(=O)(=O)C(C)C)n2)c(OC2CC2)cc1C1CCN(CCO)CC1` [Final product 133, 2-(4-(4-(5-chloro-4-(3-(isopropylsulfonyl)-1-methyl-1H-pyrazol-4-amino)pyrimidin-2-amino)-5-cyclopropoxy-2-methylphenyl)piperidin-1-yl) ethanol] registered an IC50 of over 10 µM.

Take `CC(C)S(=O)(=O)c1nn(C2CC2)cc1Nc1nc(Nc2cc(F)c(C3CCN(C)CC3)cc2OC2CC2)ncc1Cl` [Final product 46]: the IC50 was over 10 µM.

Regarding `Cc1cc(Nc2ncc(Cl)c(Nc3cn(C)nc3S(=O)(=O)C(C)C)n2)c(OC2CC2)cc1C1CCN(C2COC2)CC1` [Final product 156], the IC50 is over 10 µM.

Molecule `CC(C)S(=O)(=O)c1nn(C)cc1Nc1nc(Nc2cc(Cl)c(C3CCN(C)CC3)cc2OC2CC2)ncc1Cl` [Final product 47] displayed an IC50 of over 10 µM.

As to `Cc1cc(Nc2ncc(Cl)c(Nc3cn(C)nc3S(=O)(=O)C(C)C)n2)c(OC2CC2)cc1C1CCN(C(=O)C(F)(F)F)CC1` [Final product 161, 1-trifluoroacetyl-4-(4-(5-chloro-4-(3-(isopropylsulfonyl)-1-methyl-1H-pyrazol-4-amino)pyrimidin-2-amine)-5-cyclopropoxy-2-methylphenyl)piperidine], the IC50 is over 10 µM.

Molecule `Cc1cc(Nc2ncc(Cl)c(Nc3cn(C)nc3S(=O)(=O)C(C)C)n2)c(OC2CC2)cc1C1CC(C)N(C)C(C)C1` (stereo not shown) [Final product 95] showed an IC50 of over 10 µM.

As to `Cc1cc(Nc2ncc(Cl)c(Nc3cn(C)nc3S(=O)(=O)C(C)C)n2)c(OC2CC2)cc1C1CCN(CCN(C)C)CC1` [Final product 146, 5-chloro-N^2-(2-cyclopropoxy-4-(1-(2-(dimethylamino)ethyl)piperidin-4-yl)-5-methylphenyl)-N^4-(3-(isopropylsulfonyl)-1-methyl-1H-pyrazol-4-yl)-pyrimidin-2,4-diamine], the IC50 is over 10 µM.

`CC(=O)N1CCC(c2cc(OC3CC3)c(Nc3ncc(Cl)c(Nc4cn(C)nc4S(=O)(=O)C(C)C)n3)cc2C)CC1` [Final product 160, 1-acetyl-4-(4-(5-chloro-4-(3-(isopropylsulfonyl)-1-methyl-1H-pyrazol-4-amino)pyrimidin-2-amine)-5-cyclopropoxy-2-methylphenyl)piperidine]: the IC50 was over 10 µM.

These data come from patent US10023593B2, “ALK kinase inhibitor, and preparation method and uses thereof” (BEIJING PEARL BIOTECHNOLOGY LIMITED LIABILITY COMPANY, priority 2014, dated 2018).
